# Read-outs that look alike come from different tables or passages of the source.
# What was measured:
# [1] = Dox-Hyd-C12 nanoparticles: plasma, liver and lung levels in female SCID mice; settings: Dox-Hyd-C12 nanoparticle study, about 2.2 mg-eq/kg IV
# [2] = Dox-Hyd-C18 nanoparticles: plasma, liver and lung levels in female SCID mice; format: in vivo; settings: about 1.8 mg-eq/kg IV
# [3] = female, SCID, mouse, in vivo, iv
# [4] = SCID, mouse, in vivo, iv
Structure (SMILES),doxorubicin from hydrolysis of prodrug in tissue [1],doxorubicin from hydrolysis of prodrug in tissue [2],time nanoparticles circulate in plasma [2],AUC0-t [3],AUC0-∞ [3],tmax [3],tmax [4]
CCCCCCCCCCCCCCCCCC(=O)NN=C(CO)[C@]1(O)Cc2c(O)c3c(c(O)c2[C@@H](O[C@H]2C[C@H](N)[C@H](O)[C@H](C)O2)C1)C(=O)c1c(OC)cccc1C3=O [Dox-Hyd-C18],detected in liver and lung tissue,detected in liver and lung tissue,up to 24 hours,,,,
"Cn1c(CCCC(=O)O)nc2cc(N(CCCl)CCCl)ccc21 [Bendamustine, bendamustine]",,,,566 ng·h/mL,589 ng·h/mL,0083 h,4.98 min
